From ChEMBL document CHEMBL1201862, “PubChem BioAssay data set” (2004) come the findings set out here.

Activity calls are given as the source filed them.

Assay [1] deals with T1, Sentrin-specific protease 7 (Homo sapiens, UniProt Q9BQF6).
T1 sequence (Q9BQF6 whole entry): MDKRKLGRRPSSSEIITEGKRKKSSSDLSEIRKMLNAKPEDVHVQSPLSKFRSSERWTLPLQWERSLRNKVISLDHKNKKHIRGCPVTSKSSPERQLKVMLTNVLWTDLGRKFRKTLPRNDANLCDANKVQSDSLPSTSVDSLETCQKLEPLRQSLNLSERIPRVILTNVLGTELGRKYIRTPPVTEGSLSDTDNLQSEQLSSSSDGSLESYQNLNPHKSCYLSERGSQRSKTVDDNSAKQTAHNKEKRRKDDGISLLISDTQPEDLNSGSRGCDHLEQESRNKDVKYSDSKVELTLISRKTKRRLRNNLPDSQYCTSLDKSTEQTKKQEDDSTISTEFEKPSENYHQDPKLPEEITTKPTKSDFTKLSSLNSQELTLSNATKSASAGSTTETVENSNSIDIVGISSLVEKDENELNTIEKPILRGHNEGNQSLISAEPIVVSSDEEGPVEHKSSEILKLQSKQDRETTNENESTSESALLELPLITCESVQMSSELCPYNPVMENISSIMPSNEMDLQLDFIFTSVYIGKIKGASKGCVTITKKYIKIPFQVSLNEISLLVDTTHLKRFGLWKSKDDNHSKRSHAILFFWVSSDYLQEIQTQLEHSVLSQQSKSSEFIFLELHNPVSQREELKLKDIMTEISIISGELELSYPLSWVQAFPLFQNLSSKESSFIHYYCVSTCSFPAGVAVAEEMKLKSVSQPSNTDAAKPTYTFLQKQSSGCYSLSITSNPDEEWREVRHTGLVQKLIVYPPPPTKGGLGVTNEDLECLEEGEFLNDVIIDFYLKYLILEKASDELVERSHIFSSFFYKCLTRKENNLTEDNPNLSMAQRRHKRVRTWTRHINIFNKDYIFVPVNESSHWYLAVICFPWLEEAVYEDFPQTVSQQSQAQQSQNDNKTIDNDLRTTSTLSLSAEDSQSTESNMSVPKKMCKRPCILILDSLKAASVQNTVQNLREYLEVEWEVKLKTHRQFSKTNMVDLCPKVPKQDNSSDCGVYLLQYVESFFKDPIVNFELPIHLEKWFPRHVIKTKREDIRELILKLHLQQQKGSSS
The experiment in a line: inhibition of human SENP7 cleavage activity – biochemical, luminescence, SAR follow-up (AID 504497). The format is functional.

The target in assay [2] is T2, Sentrin-specific protease 8 (Homo sapiens, UniProt Q96LD8).
T2 sequence (Q96LD8 whole entry): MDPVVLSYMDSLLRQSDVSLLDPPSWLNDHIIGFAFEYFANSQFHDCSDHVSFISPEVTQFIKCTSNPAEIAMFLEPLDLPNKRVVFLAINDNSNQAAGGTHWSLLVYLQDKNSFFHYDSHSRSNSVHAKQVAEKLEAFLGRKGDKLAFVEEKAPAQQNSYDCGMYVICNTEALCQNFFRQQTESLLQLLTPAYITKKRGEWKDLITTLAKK
The format is functional.

The target of assay [3] is Serine/threonine-protein phosphatase (Homo sapiens, UniProt Q9BPW0). The assay can be described thus: inhibition of protein phosphatase 5 activity – biochemical, fluorescence, dose response (AID 2395).
In the next assay the target is SUMO-activating enzyme (Homo sapiens, UniProt Q9UBT2). The experiment in a line: blockers of SAE1/SAE2–UBC9 SUMO transfer – biochemical, HTRF, uHTS, primary screen (AID 2006). The format is protein-complex assay. In general terms: In TR-FRET formats the signal depends on donor and acceptor labels being close together.
Assay [4] concerns the target Tyrosine-protein kinase Fyn (Homo sapiens, UniProt P06241). The format is functional.
Assay [5] addresses Dual specificity protein kinase CLK2 (Homo sapiens, UniProt P49760). The format is functional.
The target of assay [6] is Cyclin-dependent kinase 8 (Homo sapiens, UniProt P49336). The assay can be described thus: Navigating the Kinome. Panel member name: CDK8. The format is functional.
Assay [7] addresses Platelet-derived growth factor receptor alpha (Homo sapiens, UniProt P16234). The assay can be described thus: Navigating the Kinome. Panel member name: PDGFRA. The format is functional.
The target of assay [8] is Dual specificity tyrosine-phosphorylation-regulated kinase 1A (Homo sapiens, UniProt Q13627). The format is functional.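 Further: measured against DYRK1A as one member of a broad kinome profiling panel.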
Assay [9] concerns the target Glycogen synthase kinase-3 beta (Homo sapiens, UniProt P49841). The format is functional.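 Further: value comes from a broad kinome profiling panel, with GSK3B as the panel member.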
Another assay deals with Aurora kinase A (Homo sapiens, UniProt O14965). The format is functional.
Assay [10] has as its target cAMP-dependent protein kinase catalytic subunit PRKX (Homo sapiens, UniProt P51817). The format is functional.
Another assay addresses Nonstructural protein 1 (Influenza A virus, UniProt Q194T2). The format is functional, Influenza A virus (A/California/07/2009(H1N1)).
Assay [11] in a line: NIH-3T3 fibroblast cytotoxicity, dose response, cytotoxicity control, cell-based, fluorescence, Alamar Blue, secondary assay (AID 2327).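 Further: NIH-3T3 mouse fibroblasts cultured with fluconazole at 8 µg/mL.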 The format is functional. (Alamar Blue is a resazurin reagent that responds to reducing activity.)
Assay [12] is described as follows: Fluorescence polarization-based biochemical high throughput dose response assay for activators of the Protein Kinase A-R2B (PKA-R2B) complex. [Related pubchem assays (depositor defined):AID504700, AID504704, AID504796, AID504797]. In general terms: In fluorescence polarisation assays a small probe gives low polarisation when free and higher when bound to something large.

Sequence of Dual specificity protein kinase CLK2 (P49760 whole entry): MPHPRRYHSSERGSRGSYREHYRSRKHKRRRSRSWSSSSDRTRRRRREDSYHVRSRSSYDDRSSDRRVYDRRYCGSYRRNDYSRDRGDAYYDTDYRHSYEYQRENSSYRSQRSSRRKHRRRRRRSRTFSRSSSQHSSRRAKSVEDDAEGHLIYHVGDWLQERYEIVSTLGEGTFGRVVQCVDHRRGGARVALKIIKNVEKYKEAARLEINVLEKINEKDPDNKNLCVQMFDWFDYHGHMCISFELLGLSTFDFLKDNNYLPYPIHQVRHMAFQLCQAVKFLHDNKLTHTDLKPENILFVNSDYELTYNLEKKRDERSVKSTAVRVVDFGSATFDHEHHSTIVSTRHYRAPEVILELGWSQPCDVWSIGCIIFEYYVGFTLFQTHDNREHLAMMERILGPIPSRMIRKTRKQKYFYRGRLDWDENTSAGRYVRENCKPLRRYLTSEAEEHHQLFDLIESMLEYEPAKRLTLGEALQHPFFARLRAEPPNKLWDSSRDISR
Sequence of Nonstructural protein 1 (Q194T2 whole entry): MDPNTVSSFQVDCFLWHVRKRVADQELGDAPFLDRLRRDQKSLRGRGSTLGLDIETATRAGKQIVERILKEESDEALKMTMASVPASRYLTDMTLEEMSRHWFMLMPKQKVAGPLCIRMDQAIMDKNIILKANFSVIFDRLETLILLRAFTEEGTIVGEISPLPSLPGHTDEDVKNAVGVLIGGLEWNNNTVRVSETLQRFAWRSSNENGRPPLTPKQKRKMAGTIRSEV
Sequence of SUMO-activating enzyme (Q9UBE0 whole entry): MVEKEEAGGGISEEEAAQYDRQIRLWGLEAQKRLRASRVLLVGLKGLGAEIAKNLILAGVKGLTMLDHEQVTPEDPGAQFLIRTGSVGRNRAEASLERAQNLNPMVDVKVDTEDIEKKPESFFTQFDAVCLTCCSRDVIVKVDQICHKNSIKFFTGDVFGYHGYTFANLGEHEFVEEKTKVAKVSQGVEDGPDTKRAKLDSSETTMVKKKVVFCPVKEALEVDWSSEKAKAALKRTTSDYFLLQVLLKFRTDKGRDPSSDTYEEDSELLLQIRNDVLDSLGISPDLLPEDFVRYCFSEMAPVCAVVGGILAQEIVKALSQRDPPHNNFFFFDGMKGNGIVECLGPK
Sequence of SUMO-activating enzyme (Q9UBT2 whole entry): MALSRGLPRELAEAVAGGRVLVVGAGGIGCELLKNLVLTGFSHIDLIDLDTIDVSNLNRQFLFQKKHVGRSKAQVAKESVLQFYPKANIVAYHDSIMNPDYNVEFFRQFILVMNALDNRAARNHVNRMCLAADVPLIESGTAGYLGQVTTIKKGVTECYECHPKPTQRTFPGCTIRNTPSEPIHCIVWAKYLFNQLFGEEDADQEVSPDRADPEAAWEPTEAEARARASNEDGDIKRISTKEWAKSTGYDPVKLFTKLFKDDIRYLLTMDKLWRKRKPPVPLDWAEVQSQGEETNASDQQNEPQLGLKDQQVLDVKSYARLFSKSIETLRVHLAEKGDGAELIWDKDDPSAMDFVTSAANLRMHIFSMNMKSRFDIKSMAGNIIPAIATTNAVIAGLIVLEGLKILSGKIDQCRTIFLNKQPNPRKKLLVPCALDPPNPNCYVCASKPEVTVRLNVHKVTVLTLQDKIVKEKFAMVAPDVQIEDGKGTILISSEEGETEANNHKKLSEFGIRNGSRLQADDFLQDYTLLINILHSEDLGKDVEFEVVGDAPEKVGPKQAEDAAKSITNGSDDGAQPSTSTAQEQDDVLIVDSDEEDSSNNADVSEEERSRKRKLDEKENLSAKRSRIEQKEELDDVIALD
Sequence of Cyclin-dependent kinase 8 (P49336 whole entry): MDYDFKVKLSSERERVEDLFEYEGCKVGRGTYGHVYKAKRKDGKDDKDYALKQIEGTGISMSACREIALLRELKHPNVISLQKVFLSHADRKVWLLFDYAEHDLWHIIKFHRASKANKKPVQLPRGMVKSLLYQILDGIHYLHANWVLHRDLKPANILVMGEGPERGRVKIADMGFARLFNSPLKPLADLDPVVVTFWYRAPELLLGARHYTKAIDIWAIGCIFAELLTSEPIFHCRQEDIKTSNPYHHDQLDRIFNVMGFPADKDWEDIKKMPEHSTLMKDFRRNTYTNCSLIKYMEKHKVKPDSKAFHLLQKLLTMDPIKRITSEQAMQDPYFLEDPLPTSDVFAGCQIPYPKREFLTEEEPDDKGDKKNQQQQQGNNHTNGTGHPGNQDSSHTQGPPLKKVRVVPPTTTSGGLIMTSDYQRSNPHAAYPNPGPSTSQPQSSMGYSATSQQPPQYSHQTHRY
Sequence of Tyrosine-protein kinase Fyn (P06241 whole entry): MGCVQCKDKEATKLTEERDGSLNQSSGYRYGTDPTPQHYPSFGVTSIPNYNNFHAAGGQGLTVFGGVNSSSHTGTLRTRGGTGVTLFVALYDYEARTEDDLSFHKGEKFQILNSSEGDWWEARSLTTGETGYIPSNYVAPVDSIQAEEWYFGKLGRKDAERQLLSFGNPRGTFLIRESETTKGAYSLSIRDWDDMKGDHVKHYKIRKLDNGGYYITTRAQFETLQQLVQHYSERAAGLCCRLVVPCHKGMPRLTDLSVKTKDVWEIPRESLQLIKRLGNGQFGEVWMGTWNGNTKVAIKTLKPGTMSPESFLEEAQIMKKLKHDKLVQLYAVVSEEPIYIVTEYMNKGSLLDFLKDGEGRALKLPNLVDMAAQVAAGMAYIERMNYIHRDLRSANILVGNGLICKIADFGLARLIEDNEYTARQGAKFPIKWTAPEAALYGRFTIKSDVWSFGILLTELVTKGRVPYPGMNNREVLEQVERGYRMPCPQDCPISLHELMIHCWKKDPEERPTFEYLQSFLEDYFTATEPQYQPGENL
Sequence of Glycogen synthase kinase-3 beta (P49841 whole entry): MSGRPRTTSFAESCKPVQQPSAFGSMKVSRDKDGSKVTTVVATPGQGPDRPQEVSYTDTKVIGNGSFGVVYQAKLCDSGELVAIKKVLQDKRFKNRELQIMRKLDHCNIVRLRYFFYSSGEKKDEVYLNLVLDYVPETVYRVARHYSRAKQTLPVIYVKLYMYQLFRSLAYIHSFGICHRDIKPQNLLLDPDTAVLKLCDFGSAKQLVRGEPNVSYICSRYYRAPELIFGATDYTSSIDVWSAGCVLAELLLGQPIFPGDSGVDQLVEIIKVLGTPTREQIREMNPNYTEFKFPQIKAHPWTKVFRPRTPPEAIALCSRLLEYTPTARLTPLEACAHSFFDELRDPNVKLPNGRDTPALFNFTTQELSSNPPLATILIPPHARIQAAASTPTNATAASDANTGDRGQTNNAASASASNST
Sequence of cAMP-dependent protein kinase catalytic subunit PRKX (P51817 whole entry): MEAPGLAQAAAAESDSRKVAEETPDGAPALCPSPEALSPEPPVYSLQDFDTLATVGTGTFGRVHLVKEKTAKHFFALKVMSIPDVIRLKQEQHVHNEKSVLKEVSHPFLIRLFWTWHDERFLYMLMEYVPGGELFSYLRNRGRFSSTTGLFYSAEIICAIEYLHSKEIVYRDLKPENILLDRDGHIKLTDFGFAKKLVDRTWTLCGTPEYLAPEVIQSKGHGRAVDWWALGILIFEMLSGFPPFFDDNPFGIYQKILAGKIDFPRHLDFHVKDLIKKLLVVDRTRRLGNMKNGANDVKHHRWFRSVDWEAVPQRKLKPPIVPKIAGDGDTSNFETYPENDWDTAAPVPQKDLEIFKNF
Sequence of Serine/threonine-protein phosphatase (Q9BPW0 whole entry): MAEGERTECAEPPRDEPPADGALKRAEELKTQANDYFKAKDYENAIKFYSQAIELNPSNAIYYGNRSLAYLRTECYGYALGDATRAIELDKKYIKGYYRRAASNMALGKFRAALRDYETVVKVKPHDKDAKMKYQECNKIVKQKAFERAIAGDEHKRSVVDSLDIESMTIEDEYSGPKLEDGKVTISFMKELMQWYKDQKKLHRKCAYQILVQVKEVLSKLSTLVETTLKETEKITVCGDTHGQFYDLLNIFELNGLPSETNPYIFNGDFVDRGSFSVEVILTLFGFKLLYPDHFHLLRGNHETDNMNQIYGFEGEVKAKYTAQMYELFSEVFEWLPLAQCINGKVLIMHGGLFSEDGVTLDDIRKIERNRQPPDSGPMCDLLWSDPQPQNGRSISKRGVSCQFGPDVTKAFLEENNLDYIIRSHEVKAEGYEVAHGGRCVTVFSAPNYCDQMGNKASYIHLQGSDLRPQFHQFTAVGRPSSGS
Sequence of Aurora kinase A (O14965 whole entry): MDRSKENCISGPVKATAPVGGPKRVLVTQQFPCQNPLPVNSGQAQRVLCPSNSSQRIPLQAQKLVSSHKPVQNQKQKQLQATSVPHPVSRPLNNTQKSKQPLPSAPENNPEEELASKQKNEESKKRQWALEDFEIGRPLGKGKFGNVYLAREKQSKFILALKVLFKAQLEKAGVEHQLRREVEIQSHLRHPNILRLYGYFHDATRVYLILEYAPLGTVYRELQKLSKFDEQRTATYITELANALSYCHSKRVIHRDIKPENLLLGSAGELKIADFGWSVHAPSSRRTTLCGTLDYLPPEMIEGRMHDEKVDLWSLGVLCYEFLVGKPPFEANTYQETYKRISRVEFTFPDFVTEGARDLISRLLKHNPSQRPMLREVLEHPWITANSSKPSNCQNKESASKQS

The IC50 is the concentration that inhibits the measured activity by half. Consider `O=C(NNc1cc(N2CCCC2)nc(N2CCCC2)n1)c1ccc([N+](=O)[O-])cc1`, for which the IC50 was 2430 nM (active) in assay [1], 155 nM (active) in assay [2], > 67000 nM (not active) in [3] and 5630 nM (active) at SUMO-activating enzyme.

A word on the Ki: it is the dissociation constant of the complex between target and ligand, obtained from inhibition or displacement. Take `O=C(Cc1cccs1)Nc1nc2ccccc2s1`: the Ki was 5010 nM (active) in assay [4]; > 3980 nM (inactive) in assay [5]; 398 nM (active) in [6]; 1580 nM (active) in [7]; 501 nM (active) in assay [8]; 501 nM (active) in assay [9]. The Ki at Aurora kinase A was 398 nM (active); in [10], 1260 nM (active).

A word on the EC50: it is the concentration needed to bring the measured effect to its halfway point. As for `O=S(=O)(O)c1cccc2c(N=Nc3ccc(O)c4ncccc34)cccc12`, the IC50 at Nonstructural protein 1 is 4680 nM (active). In addition, the EC50 in assay [11] is > 160000 nM (inactive); in [12] it was > 114000 nM (inactive).
